# Reference: patent US10829501B2 (BRISTOL-MYERS SQUIBB COMPANY, priority 2016, dated 2020)
# Structures can show the parent of a compound that is named as a salt.
# Biological target: ROCK2 (Homo sapiens, UniProt O75116)
# Test: ROCK2 kinase inhibition assay (LABCHIP 3000 Reader, FITC peptide substrate);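 note: rho kinase reaction read by separating phosphorylated from unphosphorylated peptide on chip, with inhibition of kinase activity computed per concentration across a dose-response series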
# Settings: not given
# ROCK2, sequence (O75116 whole entry, species assumed): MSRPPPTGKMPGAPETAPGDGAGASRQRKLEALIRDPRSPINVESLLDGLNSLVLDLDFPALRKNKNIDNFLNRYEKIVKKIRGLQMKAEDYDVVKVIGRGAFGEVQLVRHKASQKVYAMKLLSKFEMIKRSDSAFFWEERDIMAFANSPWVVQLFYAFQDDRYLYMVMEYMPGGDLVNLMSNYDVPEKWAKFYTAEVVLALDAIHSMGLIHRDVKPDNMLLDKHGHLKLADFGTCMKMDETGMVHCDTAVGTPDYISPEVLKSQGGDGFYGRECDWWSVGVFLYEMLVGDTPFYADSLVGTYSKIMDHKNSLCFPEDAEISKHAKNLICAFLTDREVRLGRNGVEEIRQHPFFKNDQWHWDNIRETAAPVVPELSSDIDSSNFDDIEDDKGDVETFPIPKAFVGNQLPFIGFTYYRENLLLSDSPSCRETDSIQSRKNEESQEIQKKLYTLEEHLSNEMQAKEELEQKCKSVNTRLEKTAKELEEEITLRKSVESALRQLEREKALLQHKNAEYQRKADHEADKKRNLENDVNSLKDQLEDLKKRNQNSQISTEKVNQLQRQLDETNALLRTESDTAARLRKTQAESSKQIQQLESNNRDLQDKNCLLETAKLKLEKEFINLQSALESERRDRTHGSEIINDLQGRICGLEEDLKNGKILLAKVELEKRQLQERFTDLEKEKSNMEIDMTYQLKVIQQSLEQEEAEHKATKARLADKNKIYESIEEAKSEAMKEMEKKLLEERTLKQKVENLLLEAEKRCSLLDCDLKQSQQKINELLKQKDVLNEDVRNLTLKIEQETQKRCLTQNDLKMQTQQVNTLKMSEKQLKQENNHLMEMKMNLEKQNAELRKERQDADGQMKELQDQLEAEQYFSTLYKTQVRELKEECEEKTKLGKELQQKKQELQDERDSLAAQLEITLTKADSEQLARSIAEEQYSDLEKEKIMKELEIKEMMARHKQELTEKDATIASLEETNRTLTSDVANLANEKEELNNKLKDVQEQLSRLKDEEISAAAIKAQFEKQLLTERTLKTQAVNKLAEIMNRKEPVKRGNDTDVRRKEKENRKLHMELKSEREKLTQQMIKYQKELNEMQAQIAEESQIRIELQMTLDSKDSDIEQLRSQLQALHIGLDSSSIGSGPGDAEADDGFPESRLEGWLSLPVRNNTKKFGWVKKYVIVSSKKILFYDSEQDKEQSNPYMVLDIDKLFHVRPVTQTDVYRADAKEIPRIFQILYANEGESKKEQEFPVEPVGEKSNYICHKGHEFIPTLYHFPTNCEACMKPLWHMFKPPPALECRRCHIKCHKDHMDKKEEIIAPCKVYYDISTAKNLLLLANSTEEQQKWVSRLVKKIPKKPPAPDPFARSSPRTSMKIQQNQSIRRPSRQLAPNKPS
row,Structure (SMILES),IC50
1,"CC(C)(O)COc1ccc2c(C(=O)NC3CC4(C3)CC(Oc3cc(-c5cccc(OCC(F)(F)F)c5)ccc3C(N)=O)C4)cnn2c1 (centres unmarked) [Example 238, N-(6-((4-carbamoyl-3′-(2,2,2-trifluoroethoxy)-[1,1′-biphenyl]-3-yl)oxy)spiro[3.3]heptan-2-yl)-6-(2-hydroxy-2-methylpropoxy)pyrazolo[1,5-a]pyridine-3-carboxamide]",0.05 to 0.25 µM
2,"COc1cccc(-c2ccc(C(N)=O)c(OC3CC4(CC(NC(=O)c5cnn6cc(OCC(C)(C)O)ccc56)C4)C3)c2)n1 (centres unmarked) [Example 235, N-(6-(2-carbamoyl-5-(6-methoxypyridin-2-yl)phenoxy)spiro[3.3]heptan-2-yl)-6-(2-hydroxy-2-methylpropoxy)pyrazolo[1,5-a]pyridine-3-carboxamide]",0.005 to 0.05 µM
3,"CC(C)(O)COc1ccc2c(C(=O)NC3CC4(C3)CC(Oc3ccc(F)cc3C(N)=O)C4)cnn2c1C1CC1 (centres unmarked) [Example 271, N-(6-(2-carbamoyl-4-fluorophenoxy)spiro[3.3]heptan-2-yl)-7-cyclopropyl-6-(2-hydroxy-2-methylpropoxy)pyrazolo[1,5-a]pyridine-3-carboxamide]",0.005 to 0.05 µM
4,"Cn1cc(-c2ccc3c(C(=O)N[C@H]4CC5(C4)C[C@H](Oc4ncccc4C(N)=O)C5)nnn3c2)cn1 (stereo partly drawn) [Example 367, N-((aR)-6-((3-carbamoylpyridin-2-yl)oxy)spiro[3.3]heptan-2-yl)-6-(1-methyl-1H-pyrazol-4-yl)-[1,2,3]triazolo[1,5-a]pyridine-3-carboxamide]",< 0.005 µM
5,"NC(=O)c1cccnc1O[C@H]1CC2(C[C@H](NC(=O)c3cnn4cc(OCC(F)F)ccc34)C2)C1 (stereo partly drawn) [Example 313, N-((aR)-6-((3-carbamoylpyridin-2-yl)oxy)spiro[3.3]heptan-2-yl)-6-(2,2-difluoroethoxy)pyrazolo[1,5-a]pyridine-3-carboxamide]",0.005 to 0.05 µM
6,"[H][C@]1(Oc2ncccc2C(N)=O)C[C@@]2(C[C@H](NC(=O)c3cc(C4CC4)n4c(Cl)c(OCc5ccccc5)ccc34)C2)C1 (stereo partly drawn) [Example 376, 6-(benzyloxy)-N-((aR)-6-((3-carbamoylpyridin-2-yl)oxy)spiro[3.3]heptan-2-yl)-5-chloro-3-cyclopropylindolizine-1-carboxamide]",0.005 to 0.05 µM
7,"CC(C)(O)COc1ccc2c(C(=O)NC3CC4(C3)CC(Oc3cc(-c5cnn(C6CC6)c5)ccc3C(N)=O)C4)cnn2c1 (centres unmarked) [Example 277, N-(6-(2-carbamoyl-5-(1-cyclopropyl-1H-pyrazol-4-yl)phenoxy)spiro[3.3]heptan-2-yl)-6-(2-hydroxy-2-methylpropoxy)pyrazolo[1,5-a]pyridine-3-carboxamide]",0.005 to 0.05 µM
8,"Cn1cc(-c2cc(C#N)cc(C(=O)N[C@H]3CC4(C3)C[C@H](Oc3ncccc3C(N)=O)C4)c2)c(C(F)(F)F)n1 (stereo partly drawn) [Example 184, 2-(((aR)-6-(3-cyano-5-(1-methyl-3-(trifluoromethyl)-1H-pyrazol-4-yl)benzamido)spiro[3.3]heptan-2-yl)oxy)nicotinamide, trifluoroacetate]",0.005 to 0.05 µM
9,CC(C)(O)COc1ccc2c(C(=O)NC3CC4(C3)CC(Oc3cc(-c5cccc(Cl)n5)ccc3C(N)=O)C4)cnn2c1 (centres unmarked) [Example 248],0.005 to 0.05 µM
10,"CC(C)(O)COc1ccc2c(C(=O)N[C@H]3CC4(C3)C[C@H](Oc3ncccc3C(N)=O)C4)cnn2c1 (stereo partly drawn) [Example 64, N-((aR)-6-((3-carbamoylpyridin-2-yl)oxy)spiro[3.3]-heptan-2-yl)-6-(2-hydroxy-2-methylpropoxy) pyrazolo-[1,5-a]pyridine-3-carboxamide, trifluoroacetate]",0.005 to 0.05 µM
11,"[H][C@]1(Oc2ncccc2C(N)=O)C[C@@]2(C[C@H](NC(=O)c3nnn4c(Cl)c(OCc5ccccc5)ccc34)C2)C1 (stereo partly drawn) [Example 373, 6-(benzyloxy)-N-((aR)-6-((3-carbamoylpyridin-2-yl)oxy)spiro[3.3]heptan-2-yl)-7-chloro-[1,2,3]triazolo[1,5-a]pyridine-3-carboxamide]",0.25 to 2.5 µM
12,"NC(=O)c1ccccc1O[C@H]1CC2(C[C@H](NC(=O)N3CCc4ccccc43)C2)C1 (stereo partly drawn) [Example 37, N-((aR)-6-(2-carbamoylphenoxy)spiro[3.3]heptan-2-yl)indoline-1-carboxamide]",0.05 to 0.25 µM
13,"N#Cc1cccn2c(C(=O)N[C@H]3CC4(C3)C[C@H](Oc3ncccc3C(N)=O)C4)cnc12 (stereo partly drawn) [Example 354, N-((aR)-6-((3-carbamoylpyridin-2-yl)oxy)spiro[3.3]heptan-2-yl)-8-cyanoimidazo[1,2-a]pyridine-3-carboxamide]",0.05 to 0.25 µM
14,"NC(=O)c1cccnc1O[C@H]1CC2(C[C@H](NC(=O)c3cnn4cc(N5CC[C@@H](F)C5)ccc34)C2)C1 (stereo partly drawn) [Example 318, N-((aR)-6-((3-carbamoylpyridin-2-yl)oxy)spiro[3.3]heptan-2-yl)-6-((R)-3-fluoropyrrolidin-1-yl)pyrazolo[1,5-a]pyridine-3-carboxamide]",< 0.005 µM
15,"NC(=O)c1ccccc1OC1CC2(CC(NC(=O)c3cnn4c(C5CC5)c(OC5CCS(=O)(=O)CC5)ccc34)C2)C1 [Example 35, N-[(aR)-6-(2-carbamoylphenoxy)spiro [3.3]heptan-2-yl]-7-cyclopropyl-6-[(1,1-dioxo-1λ^6-thian-4-yl)oxy]pyrazolo[1,5-a] pyridine-3-carboxamide]",< 0.005 µM
16,"CC(C)(O)COc1ccc2c(C(=O)NC3CC4(C3)CC(Oc3cc(-c5cccc(C(F)F)c5)ccc3C(N)=O)C4)cnn2c1 (centres unmarked) [Example 241, N-(6-((4-carbamoyl-3′-(difluoromethyl)-[1,1′-biphenyl]-3-yl)oxy)spiro[3.3]heptan-2-yl)-6-(2-hydroxy-2-methylpropoxy)pyrazolo[1,5-a]pyridine-3-carboxamide]",0.005 to 0.05 µM
17,"N#Cc1cccc(-c2ccc(C(=O)N[C@H]3CC4(C3)C[C@H](Oc3ncccc3C(N)=O)C4)cc2)c1 (stereo partly drawn) [Example 160, 2-(((aR)-6-(3′-cyano-[1,1′-biphenyl]-4-ylcarboxamido)spiro[3.3]heptan-2-yl)oxy) nicotinamide]",0.05 to 0.25 µM
18,"Cn1c(-c2nc(C(=O)N[C@H]3CC4(C3)C[C@H](Oc3ncccc3C(N)=O)C4)cs2)nc2ccccc21 (stereo partly drawn) [Example 146, N-((aR)-6-((3-carbamoylpyridin-2-yl)oxy)spiro[3.3]heptan-2-yl)-2-(1-methyl-1H-benzo[d]imidazol-2-yl)thiazole-4-carboxamide, trifluoroacetate]",0.05 to 0.25 µM
19,"CC(C)(O)COc1ccc2c(C(=O)NC3CC4(C3)CC(Oc3cc(-c5ccc(CN6CCOCC6)s5)ccc3C(N)=O)C4)cnn2c1 (centres unmarked) [Example 281, N-(6-(2-carbamoyl-5-(5-(morpholinomethyl)thiophen-2-yl)phenoxy)spiro[3.3]heptan-2-yl)-6-(2-hydroxy-2-methylpropoxy)pyrazolo[1,5-a]pyridine-3-carboxamide]",0.005 to 0.05 µM
20,"NC(=O)c1cccnc1O[C@H]1CC2(C[C@H](NC(=O)c3c(C(F)(F)F)nc4ccc(Cl)cn34)C2)C1 (stereo partly drawn) [Example 139, N-((aR)-6-((3-carbamoylpyridin-2-yl)oxy)spiro[3.3]heptan-2-yl)-6-chloro-2-(trifluoromethyl) imidazo[1,2-a]pyridine-3-carboxamide, trifluoroacetate]",0.25 to 2.5 µM
21,Cn1nc(C(=O)NC2CC3(C2)CC(Oc2ncccc2C(N)=O)C3)cc1-c1ccccc1 (centres unmarked) [Example 396],0.005 to 0.05 µM
22,"CN(C)CCNC(=O)c1cccc(-c2ccc(C(N)=O)c(OC3CC4(CC(NC(=O)c5cnn6cc(OCC(C)(C)O)ccc56)C4)C3)c2)c1 (centres unmarked) [Example 285, N3-(2-(dimethylamino)ethyl)-3′-((6-(6-(2-hydroxy-2-methylpropoxy)pyrazolo[1,5-a]pyridine-3-carboxamido)spiro[3.3]heptan-2-yl)oxy)-[1,1′-biphenyl]-3,4′-dicarboxamide]",0.005 to 0.05 µM
23,"CC(F)(F)COc1ccc2c(C(=O)N[C@H]3CC4(C3)C[C@H](Oc3ncccc3C(N)=O)C4)cnn2c1 (stereo partly drawn) [Example 308, N-((aR)-6-((3-carbamoylpyridin-2-yl)oxy)spiro[3.3]heptan-2-yl)-6-(2,2-difluoropropoxy)pyrazolo[1,5-a]pyridine-3-carboxamide]",< 0.005 µM
24,"NC(=O)c1cccnc1O[C@H]1CC2(C[C@H](NC(=O)c3cnn4cc(N5CCOCC5)ccc34)C2)C1 (stereo partly drawn) [Example 317, N-((aR)-6-((3-carbamoylpyridin-2-yl)oxy)spiro[3.3]heptan-2-yl)-6-morpholinopyrazolo[1,5-a]pyridine-3-carboxamide]",0.005 to 0.05 µM

# Same assay, conditions: read-out: ROCK2 Activity (ROCK2 IC50); 5 μM ATP, 1.5 μM peptide substrate, pH 7.5
row,Structure (SMILES),IC50
1,"CN1CCN(c2cc(C(=O)NC3CC4(C3)CC(Oc3ncccc3C(N)=O)C4)cc(C(F)(F)F)c2)CC1 [Example 422, 2-(((aR)-6-(3-(4-methylpiperazin-1-yl)-5-(trifluoromethyl)benzamido)spiro[3.3]heptan-2-yl)oxy)nicotinamide]",0.005 to 0.05 µM
2,"Cc1nn(C)cc1-c1ccc2c(C(=O)NC3CC4(C3)CC(Oc3ncccc3C(N)=O)C4)nc(C)n2c1 [Example 459, N-((aR)-6-((3-carbamoylpyridin-2-yl)oxy)spiro[3.3]heptan-2-yl)-6-(1,3-dimethyl-1H-pyrazol-4-yl)-3-methylimidazo[1,5-a]pyridine-1-carboxamide]",0.005 to 0.05 µM
3,"Cc1c(C(=O)NC2CC3(C2)CC(Oc2ncccc2C(N)=O)C3)cnn1-c1ccc(Cl)cc1 [Example 384, N-[(aR)2-({6-[1-(4-chlorophenyl)-5-methyl-1H-pyrazole-4-amido]spiro[3.3]heptan-2-yl}oxy)pyridine-3-carboxamid 1 trifluoroacetic acid salt]",0.005 to 0.05 µM
4,"NC(=O)c1cccnc1OC1CC2(CC(NC(=O)c3nn(CCC(F)(F)F)c4cc(F)ccc34)C2)C1 [Example 105, N-((aR)-6-((3-carbamoylpyridin-2-yl)oxy)spiro[3.3]heptan-2-yl)-6-fluoro-1-(3,3,3-trifluoropropyl)-1H-indazole-3-carboxamide, trifluoroacetate]",< 0.005 µM
5,"NC(=O)c1cccnc1OC1CC2(CC(NC(=O)c3cc(N4CC5CCC(C4)O5)cc(C(F)(F)F)c3)C2)C1 [Example 456, 2-(((aR)-6-(3-(8-oxa-3-azabicyclo[3.2.1]octan-3-yl)-5-(trifluoromethyl)benzamido)spiro[3.3]heptan-2-yl)oxy)nicotinamide]",< 0.005 µM
